The text below walks through data of patent US20250230165A1, “HETEROCYCLIC COMPOUNDS FOR USE IN THE TREATMENT OF CANCER” (ARTIOS PHARMA LIMITED, priority 2021, published 2025).

Each structure is given as a SMILES string.

The target of the assay is T1, Human Polθ polymerase domain (aa1820-2590) (Homo sapiens, UniProt O75417).
T1 construct: Human Polθ polymerase domain (aa1820-2590) was expressed in E. coli; made in house; host or cells: E. coli
T1 sequence (O75417 1820-2590): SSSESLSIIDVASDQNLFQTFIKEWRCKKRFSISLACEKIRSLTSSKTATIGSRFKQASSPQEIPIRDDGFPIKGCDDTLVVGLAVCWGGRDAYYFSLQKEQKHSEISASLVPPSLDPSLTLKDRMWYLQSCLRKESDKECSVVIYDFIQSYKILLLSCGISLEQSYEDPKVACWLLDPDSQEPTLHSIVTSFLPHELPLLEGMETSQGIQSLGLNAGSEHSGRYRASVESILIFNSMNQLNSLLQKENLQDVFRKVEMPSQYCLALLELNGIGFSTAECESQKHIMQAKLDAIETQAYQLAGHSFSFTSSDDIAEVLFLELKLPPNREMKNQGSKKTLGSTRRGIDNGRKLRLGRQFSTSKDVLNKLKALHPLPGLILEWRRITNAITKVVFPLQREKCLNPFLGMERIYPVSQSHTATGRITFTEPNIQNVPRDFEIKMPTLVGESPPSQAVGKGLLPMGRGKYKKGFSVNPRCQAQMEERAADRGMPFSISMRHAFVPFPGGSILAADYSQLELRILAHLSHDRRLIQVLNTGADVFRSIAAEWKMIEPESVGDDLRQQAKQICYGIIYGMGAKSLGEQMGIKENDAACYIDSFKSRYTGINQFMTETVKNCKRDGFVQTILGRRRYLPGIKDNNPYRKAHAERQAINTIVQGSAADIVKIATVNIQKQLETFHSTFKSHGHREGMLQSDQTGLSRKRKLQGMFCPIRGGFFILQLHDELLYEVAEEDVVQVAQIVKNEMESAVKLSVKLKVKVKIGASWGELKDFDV
Description: Polθ Polymerase Domain Kinact/KI Assay (PicoGreen). In kind it is biochemical. As to conditions: 0.8 nM Polθ, 100 nM DNA substrate, kobs vs [I] fit for 2-step covalent inhibitor. The gist of the method:
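Time-dependent inhibition was followed with 0.8 nM polymerase domain, 100 nM DNA substrate and […], reactions quenched over 60 min and quantified by PicoGreen. Kinact and KI came from a secondary plot of kobs against inhibitor concentration.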

`C=CC(=O)N1CCN2CC(=O)N(CCN3C[C@H]4CC(=O)N(c5cc(C(F)(F)F)cc(C)n5)[C@@H]4C(=O)N(C)c4cccc(F)c43)C[C@@H]2C1` [Example 47, (3aR,11aS)-5-(2-((S)-8-acryloyl-3-oxooctahydro-2H-pyrazino[1,2-a]pyrazin-2-yl)ethyl)-6-fluoro-10-methyl-1-(6-methyl-4-(trifluoromethyl)pyridin-2-yl)-1,3a,4,5,10,11a-hexahydro-2H-benzo[b]pyrrolo[2,3-f][1,4]diazocine-2,11(3H)-dione] came in with a Kinact/Kl of 140000 M⁻¹ s⁻¹.

For the compound `C=C(CN(C)C)C(=O)NCc1ccc(CN2C[C@H]3CC(=O)N(c4cc(C(F)(F)F)cc(C)n4)[C@@H]3C(=O)N(C)c3cccc(C)c32)cc1` [Example 189, N-(4-(((3aR,11aS)-6,10-dimethyl-1-(6-methyl-4-(trifluoromethyl)-pyridin-2-yl)-2,11-dioxo-1,2,3,3a,4, 10,11,11a-octa-hydro-5H-benzo [b]pyrrolo[2,3-f] [1,4]diazocin-5-yl)-methyl)benzyl)-2-((dimethylamino)-methyl)acrylamide], the Kinact/Kl is 3.35e+06 M⁻¹ s⁻¹.

`C=CC(=O)N1CC[C@H](NCCN2C[C@H]3CC(=O)N(c4cc(C(F)(F)F)cc(C)n4)[C@@H]3C(=O)N(C)c3cccc(Cl)c32)[C@H](F)C1` [Example 66, (3aR,11aS)-5-(2-(((3R,4S)-1-acryloyl-3-fluoropiperidin-4-yl)amino)ethyl)-6-chloro-10-methyl-1-(6-methyl-4-(trifluoromethyl)pyridin-2-yl)-1,3a,4,5,10,11a-hexahydro-2H-benzo[b]pyrrolo[2,3-f][1,4]diazocine-2,11(3H)-dione] gave a Kinact/Kl of 2.11e+06 M⁻¹ s⁻¹. The same measure for `C=C(CN(C)C)C(=O)N1CC(OCCCN2C[C@H]3CC(=O)N(c4cc(C(F)(F)F)cc(C)n4)[C@@H]3C(=O)N(C)c3ccccc32)C1` [Example 81, (3aR,11aS)-5-(3-((1-(2-((dimethylamino)methyl)acryloyl)azetidin-3-yl)oxy)propyl)-10-methyl-1-(6-methyl-4-(trifluoromethyl)pyridin-2-yl)-1,3a,4,5,10,11a-hexahydro-2H-benzo[b]pyrrolo[2,3-f][1,4]diazocine-2,11(3H)-dione]: 2.03e+06 M⁻¹ s⁻¹.

Compound `C=CC(=O)N1Cc2cc(CN3C[C@H]4CC(=O)N(c5cc(C(F)(F)F)cc(C)n5)[C@@H]4C(=O)N(C)c4cccc(C)c43)cnc2C1CO` (single isomer, unassigned) [Example 232] showed a Kinact/Kl of 1.89e+06 M⁻¹ s⁻¹. `C=CC(=O)N1C[C@@H](n2cnc(CN3C[C@H]4CC(=O)N(c5cc(C(F)(F)F)cc(C)n5)[C@@H]4C(=O)N(C)c4cccc(C)c43)c2)[C@@H](F)C1` (single isomer, unassigned) [Example 326b] returned a Kinact/Kl of 1.52e+06 M⁻¹ s⁻¹.

On to `C=C(CN(C)C)C(=O)N[C@@H]1CCc2nc(CN3C[C@H]4CC(=O)N(c5cc(C(F)(F)F)cc(C)n5)[C@@H]4C(=O)N(C)c4cccc(C)c43)cn2C1` (mixture of isomers) [Example 329a, N-((R/S)-2-(((3aR, 11aS)-6,10-dimethyl-1-(6-methyl-4-(tri-fluoromethyl)pyridin-2-yl)-2,11-dioxo-1,2,3,3a,4,10,11,11a-octahydro-5H-benzo [b]pyrrolo[2,3-f][1,4]diazocin-5-yl)methyl)-5,6,7,8-tetrahydro-imidazo[1,2-a]pyridin-6-yl)-2-((dimethyl-amino)methyl)acryl-amide], for which the Kinact/Kl was 1.73e+06 M⁻¹ s⁻¹. Then `C=CC(=O)N1CCN(CCCN2C[C@H]3CC(=O)N(c4cc(C(F)(F)F)cc(C)n4)[C@@H]3C(=O)N(C)c3cccc(Cl)c32)CC1CC#N` (mixture of isomers) [Example 267b, 2-((R/S)-1-acryloyl-4-(3-((3aR,11aS)-6-chloro-10-methyl-1-(6-methyl-4-(trifluoromethyl)pyridin-2-yl)-2,11-dioxo-1,2,3,3a,4,10,11,11a-octahydro-5H-benzo[b]pyrrolo[2,3-f][1,4]diazocin-5-yl)propyl)piperazin-2-yl)acetonitrile], with 3.03e+06 M⁻¹ s⁻¹; and `C=CC(=O)N1CC(N2CCC(CN3C[C@H]4CC(=O)N(c5cc(C(F)(F)F)cc(C)n5)[C@@H]4C(=O)N(C)c4cccc(F)c43)CC2)C1` [Example 212, (3aR,11aS)-5-((1-(1-acryloylazetidin-3-yl)piperidin-4-yl)methyl)-6-fluoro-10-methyl-1-(6-methyl-4-(trifluoromethyl)pyridin-2-yl)-1,3a,4,5,10,11a-hexahydro-2H-benzo[b]pyrrolo [2,3-f][1,4] diazocine-2,11 (3H)-dione], with 1.81e+06 M⁻¹ s⁻¹.

`C#CC(=O)N1Cc2nc(CN3C[C@H]4CC(=O)N(c5cc(C(F)(F)F)cc(C)n5)[C@@H]4C(=O)N(C)c4cccc(Cl)c43)cn2C[C@H]1C` (racemic) [Example 172b, (3aR,11aS)-6-chloro-10-meth-yl-1-(6-methyl-4-(trifluoro-methyl)pyridin-2-yl)-5-(((R/S)-6-methyl-7-propioloyl-5,6,7,8-tetra-hydroimidazo [1,2-a]pyrazin-2-yl)methyl)-1,3a,4,5,10,11a-hexahydro-2H-benzo[b]pyrrolo [2,3-f][1,4]diazo-cine-2,11(3H)-dione]: the Kinact/Kl came out at 280000 M⁻¹ s⁻¹. Consider `C=CC(=O)N1CCOC[C@@H]1c1ccc(CN2C[C@H]3CC(=O)N(c4cc(C(F)(F)F)cc(C)n4)[C@@H]3C(=O)N(C)c3cccc(C)c32)cc1` (racemic) [Example 323b, (3aR,11aS)-5-(4-((S/R)-4-acryloyl-morpholin-3-yl)-benzyl)-6,10-dimeth-yl-1-(6-methyl-4-(trifluoromethyl)-pyridin-2-yl)-1,3a,4,5,10,11a-hexahydro-2H-benzo[b]pyrrolo [2,3-f][1,4]diazocine-2,11(3H)-dione], for which the Kinact/Kl stood at 330000 M⁻¹ s⁻¹. As to `C=CC(=O)Nc1ccc(CN2C[C@H]3CC(=O)N(c4cc(C(F)(F)F)cc(C)n4)[C@@H]3C(=O)N(C)c3cccc(C)c32)cc1OC` [Example 90, N-(4-(((3aR,11aS)-6,10-dimethyl-1-(6-methyl-4-(trifluoromethyl)pyridin-2-yl)-2,11-dioxo-1,2,3,3a,4,10,11,11a-octahydro-5H-benzo[b]pyrrolo[2,3-f][1,4]diazocin-5-yl)methyl)-2-methoxyphenyl)acrylamide], the Kinact/Kl was determined as 2.09e+06 M⁻¹ s⁻¹.

Regarding `C=CC(=O)N1C[C@H]2CN(CCN3C[C@H]4CC(=O)N(c5cc(C(F)(F)F)cc(C)n5)[C@@H]4C(=O)N(C)c4cccc(F)c43)CC[C@H]2C1` (single isomer, unassigned) [Example 25b], the Kinact/Kl is 250000 M⁻¹ s⁻¹. The same measure for `C=CC(=O)N1CCN(CCCN2C[C@H]3CC(=O)N(c4cc(C(F)(F)F)cc(C)n4)[C@@H]3C(=O)N(C)c3cccc(C)c32)CC1C(F)(F)F` (mixture of isomers) [Example 265b, (3aR,11aS)-5-(3-((R/S)-4-acryloyl-3-(trifluoromethyl)piperazin-1-yl)propyl)-6,10-dimethyl-1-(6-methyl-4-(trifluoromethyl)pyridin-2-yl)-1,3a,4,5,10,11a-hexahydro-2H-benzo[b]pyrrolo[2,3-f][1,4]diazocine-2,11(3H)-dione]: 1.58e+06 M⁻¹ s⁻¹. The same measure for `C=CC(=O)N1CCN(CCN2C[C@H]3CC(=O)N(c4cc(C(F)(F)F)cc(C)n4)[C@@H]3C(=O)N(C)c3cccc(C)c32)CC1` [Example 256, (3aR,11aS)-5-(2-(4-acryloylpiperazin-1-yl)ethyl)-6,10-dimethyl-1-(6-methyl-4-(trifluoromethyl)pyridin-2-yl)-1,3a,4,5,10,11a-hexahydro-2H-benzo[b]pyrrolo[2,3-f][1,4]diazocine-2,11(3H)-dione]: 1.11e+06 M⁻¹ s⁻¹; for `C=CC(=O)N1CCOC[C@H]1c1ccc(CN2C[C@H]3CC(=O)N(c4cc(C(F)(F)F)cc(C)n4)[C@@H]3C(=O)N(C)c3cccc(C)c32)cc1` (racemic) [Example 323a, (3aR,11aS)-5-(4-((R/S)-4-acryloyl-morpholin-3-yl)-benzyl)-6,10-di-methyl-1-(6-meth-yl-4-(trifluorometh-yl)pyridin-2-yl)-1,3a,4,5,10,11a-hexahydro-2H-benzo[b]pyrrolo [2,3-f][1,4]diazo-cine-2,11(3H)-dione]: 640000 M⁻¹ s⁻¹; for `C=CC(=O)N1CC(n2ccc(CN3C[C@H]4CC(=O)N(c5cc(C(F)(F)F)cc(C)n5)[C@@H]4C(=O)N(C)c4cccc(F)c43)n2)C1` [Example 120, (3aR,11aS)-5-((1-(1-acryloylazetidin-3-yl)-1H-pyrazol-3-yl)methyl)-6-fluoro-10-methyl-1-(6-methyl-4-(trifluoromethyl)pyridin-2-yl)-1,3a,4,5,10,11a-hexahydro-2H-benzo[b]pyrrolo[2,3-f][1,4]diazocine-2,11(3H)-dione]: 890000 M⁻¹ s⁻¹.
